From patent US11781191B2, “Compositions and method for detecting Mycobacterium riyadhense” (King Abdullah University of Science and Technology, priority 2019, dated 2023)

Each compound was assayed on M. riyadhense isolates (assay: antimicrobial susceptibility testing of clinical isolates). Settings: eight clinical M. riyadhense isolates; share of isolates susceptible.
Type: cell-based, Mycobacterium riyadhense

Row | Compound | susceptibility of isolates [%]
1 | NCC[C@H](O)C(=O)N[C@@H]1C[C@H](N)[C@@H](O[C@H]2O[C@H](CN)[C@@H](O)[C@H](O)[C@H]2O)[C@H](O)[C@H]1O[C@H]1O[C@H](CO)[C@@H](O)[C@H](N)[C@H]1O [amikacin] | 100
2 | CC[C@H]1OC(=O)[C@H](C)[C@@H](O[C@H]2C[C@@](C)(OC)[C@@H](O)[C@H](C)O2)[C@H](C)[C@@H](O[C@@H]2O[C@H](C)C[C@H](N(C)C)[C@H]2O)[C@](C)(OC)C[C@@H](C)C(=O)[C@H](C)[C@@H](O)[C@]1(C)O [clarithromycin] | 100
3 | CC[C@@H](CO)NCCN[C@@H](CC)CO [ethambutol] | 100
4 | CC(=O)NC[C@H]1CN(c2ccc(N3CCOCC3)c(F)c2)C(=O)O1 [linezolid] | 100
5 | COc1c(N2C[C@@H]3CCCN[C@@H]3C2)c(F)cc2c(=O)c(C(=O)O)cn(C3CC3)c12 [moxifloxacin] | 100
6 | CO[C@H]1/C=C/O[C@@]2(C)Oc3c(C)c(O)c4c(c3C2=O)C2=NC3(CCN(CC(C)C)CC3)NC2=C(NC(=O)/C(C)=C\C=C\[C@H](C)[C@H](O)[C@@H](C)[C@@H](O)[C@@H](C)[C@H](OC(C)=O)[C@@H]1C)C4=O [rifabutin] | 100
7 | CO[C@H]1/C=C/O[C@@]2(C)Oc3c(C)c(O)c4c(O)c(c(/C=N/N5CCN(C)CC5)c(O)c4c3C2=O)NC(=O)/C(C)=C\C=C\[C@H](C)[C@H](O)[C@@H](C)[C@@H](O)[C@@H](C)[C@H](OC(C)=O)[C@@H]1C [rifampin] | 100
8 | trimethoprim-sulfamethoxazole | 100
